Results reported in patent US4672066A, “Derivatives of 4-acetyl-3-hydroxy-2-alkyl-phenoxycarboxylic acids” (Hoffmann-La Roche Inc., priority 1985, dated 1987).
pIC50: −log10 of the molar value. Read-outs that look alike come from different tables or passages of the source.

Legend:
[1] = target: T1, PAF (Canis lupus familiaris, UniProt A0A8I3NSH0); assay: PAF Radioreceptor Binding Assay; settings: dog platelets, 3H-PAF
T1 construct: followed by 2×10^7 dog platelets; from tissue; host or cells: washed platelets from citrate-treated dog blood
T1 sequence (A0A8I3NSH0 1-343): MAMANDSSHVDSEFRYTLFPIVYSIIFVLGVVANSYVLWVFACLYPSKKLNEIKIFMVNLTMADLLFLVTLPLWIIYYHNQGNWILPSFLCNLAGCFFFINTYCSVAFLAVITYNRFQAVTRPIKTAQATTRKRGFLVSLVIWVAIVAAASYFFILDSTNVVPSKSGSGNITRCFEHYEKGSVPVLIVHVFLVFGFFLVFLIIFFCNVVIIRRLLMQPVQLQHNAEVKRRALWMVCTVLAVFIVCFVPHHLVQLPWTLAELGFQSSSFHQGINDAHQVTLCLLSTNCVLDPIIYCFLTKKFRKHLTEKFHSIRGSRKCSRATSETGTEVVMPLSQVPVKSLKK
Procedure: Platelet rich plasma is prepared by centrifugation of citrate-treated dog blood. Acidification to pH 6.5 with 0.15 M citric acid and centrifugation for 10 minutes at 1000 xg yields a platelet pellet which is then washed by resuspension in EDTA-Phosphate Buffered Saline (PBS) and recentrifuged. The washed platelet preparation is adjusted to 2×10^7 platelets/50 μl in 0.1% BSA-PBS. […] After mixing, incubating for 10 minutes at room temperature, and centrifuging for 1 minute in a Beckman Microfuge B (8000 xg), the pellet is removed by clipping off the tip of the tube, the platelets are solubilized with 200 μl of 50% methanol, and counted in 10 ml of Aquasol. […] Results obtained with representative compounds of the present invention in this assay are summarized hereinafter in Tables I, II and III.

[2] = target: T2, TXA2 synthase (Homo sapiens, UniProt P24557); assay: Thromboxane Synthase Inhibition, In Vitro; format: biochemical; settings: at 1 μM (value in parentheses), human platelet microsomes
T2 construct: microsomal fractions from human platelets as enzyme source; from tissue; host or cells: microsomal fraction of human platelets
T2 sequence (P24557 1-533): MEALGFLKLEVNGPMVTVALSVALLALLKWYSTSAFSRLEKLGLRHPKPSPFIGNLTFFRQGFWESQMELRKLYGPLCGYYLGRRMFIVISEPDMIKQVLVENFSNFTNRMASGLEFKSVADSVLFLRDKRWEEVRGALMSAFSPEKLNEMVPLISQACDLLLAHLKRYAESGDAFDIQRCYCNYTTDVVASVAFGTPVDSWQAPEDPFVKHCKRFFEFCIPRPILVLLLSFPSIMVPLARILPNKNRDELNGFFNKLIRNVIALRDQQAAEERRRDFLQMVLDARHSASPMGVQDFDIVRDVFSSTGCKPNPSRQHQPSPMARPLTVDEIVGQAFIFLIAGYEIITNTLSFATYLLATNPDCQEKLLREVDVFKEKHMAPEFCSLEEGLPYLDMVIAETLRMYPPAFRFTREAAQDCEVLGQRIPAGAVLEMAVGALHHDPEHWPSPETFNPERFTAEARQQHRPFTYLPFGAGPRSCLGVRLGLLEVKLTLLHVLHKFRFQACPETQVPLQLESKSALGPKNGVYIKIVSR
Procedure: TXA2 synthase activity is measured by following the conversion of ^14 C-prostaglandin endoperoxide (PGH2) to ^14 C-thromboxane A2 (TXA2) using microsomal fractions from human platelets as enzyme source. In the aqueous incubation medium, the TXA2 decomposes rapidly into TXB2. The amount of TXA2 synthase is adjusted so that under the conditions of the assay approximately 80-90% of the substrate, PGH2, is converted to product in control tubes. To prepare ^14 C-PGH2, ^14 C-AA (50-60 mCi/mmole; Rose Chem.) is incubated with sheep seminal vesicular gland microsomes for 1.5 minutes at 37° C. and then the ^14 C-PGH2 is extracted with diethylether, purified on columns of Sephadex LH-20 or silicic acid, and stored in acetone at -70° C. Incubations are done as follows. Sufficient ^14 C-PGH2 yield a final substrate concentration of 10 μM (~30,000 cpm) is added to the incubation tubes and then the acetone is removed under nitrogen. […] The tubes are incubated at 22° C. for 2 minutes, the reaction is stopped and then the radioactive products and the unconverted PGH2 are extracted and analyzed by thin layer chromatography. […] The amount of ^14 C-PGH2 converted to products was used as a measure of TXA2 synthase activity. Inhibitors were tested initially at a final concentration of 100 μM. Results obtained with representative compounds of the present invention in this assay are summarized hereafter in Table I, II and III.

[3] = Table II, read-out: TXA2 Synth. Inhib. % at (1μM)
[4] = Table I, read-out: TXA2 Syn. Inhib. (1μM)
[5] = Table III, read-out: TXA2 Synth. Inhib. % at (1 μM)

Row | Compound | pIC50 ([1]; Table I) | inhibition at 1 µM [2, 4] [%] | other results
1 | CCCc1c(OCCCCCC(=O)NCCCCn2ccnc2)ccc(C(C)=O)c1O | – | – | pIC50 ([1]; Table II): 6.00; inhibition at 1 µM [2, 3]: 87%
2 | CCCc1c(OCCCCCC(=O)NCCCCc2ccccn2)ccc(C(C)=O)c1O | – | – | pIC50 ([1]; Table II): 6.00; inhibition at 1 µM [2, 3]: 0%
3 | CCCc1c(OCCCCCC(=O)NCCCCOc2cccnc2)ccc(C(C)=O)c1O | – | – | pIC50 ([1]; Table II): 6.00; inhibition at 1 µM [2, 3]: 93%
4 | CCCc1c(OCCCCCC(=O)NCCc2ccncc2)ccc(C(C)=O)c1O | – | – | pIC50 ([1]; Table II): 5.76; inhibition at 1 µM [2, 3]: 0%
5 | CCCc1c(OCC(=O)NCCCCc2cccnc2)ccc(C(C)=O)c1O [Example 7, (4-Acetyl-3-hydroxy-2-propylphenoxy)-N-[4-(3-pyridinyl)butyl]acetamide] | 5.82 | 81 | –
6 | CCCc1c(OCCC(C)C(=O)NCCCCc2cccnc2)ccc(C(C)=O)c1O (stereo not shown) [Example 22, 4-(4-Acetyl-3-hydroxy-2-propylphenoxy)-2-methyl-N-[4-(3-pyridinyl)butyl]butanamide] | – | – | pIC50 ([1]; Table III): 6.00; inhibition at 1 µM [2, 5]: 70%
7 | CCCc1c(OCC(C)CC(=O)NCCCCc2cccnc2)ccc(C(C)=O)c1O (stereo not shown) [Example 23, 4-(4-Acetyl-3-hydroxy-2-propylphenoxy)-3-methyl-N-[4-(3-pyridinyl)butyl]butanamide] | – | – | pIC50 ([1]; Table III): 6.70; inhibition at 1 µM [2, 5]: 77%
8 | CCCc1c(OCCC(C)(C)C(=O)NCCCCc2cccnc2)ccc(C(C)=O)c1O [Example 24, 4-(4-Acetyl-3-hydroxy-2-propylphenoxy)-2,2-dimethyl-N-[4-(3-pyridinyl)butyl]butanamide] | – | – | pIC50 ([1]; Table III): 6.00; inhibition at 1 µM [2, 5]: 55%

Second part, led by results:

Row | pIC50 ([1]; Table I) | inhibition at 1 µM [2, 4] [%] | Compound | other results
9 | 6.00 | – | CCCc1c(OCCCCC(=O)NCCCCc2cccnc2)ccc(C(C)=O)c1O [Example 1] | –
10 | 6.00 | – | CCCc1c(OCCCCCCCC(=O)NCCCCc2cccnc2)ccc(C(C)=O)c1O [Example 2, 8-(4-Acetyl-3-hydroxy-2-propylphenoxy)-N-[4-(3-pyridinyl)butyl]octanamide] | –
11 | 6.00 | 93 | CCCc1c(OCCCCCCC(=O)NCCCCc2cccnc2)ccc(C(C)=O)c1O [Example 3, 7-(4-Acetyl-3-hydroxy-2-propylphenoxy)-N-[4-(3-pyridinyl)butyl]heptanamide] | –
12 | 6.00 | 77 | CCCc1c(OCCC(=O)NCCCCc2cccnc2)ccc(C(C)=O)c1O [Example 6, 3-(4-Acetyl-3-hydroxy-2-propylphenoxy)-N-[4-(3-pyridinyl)butyl]propanamide] | –
13 | 6.00 | 90 | CCCc1c(OCCCCCC(=O)NCCCCCCc2cccnc2)ccc(C(C)=O)c1O [Example 8, 6-(4-Acetyl-3-hydroxy-2-propylphenoxy)-N-[6-(3-pyridinyl)hexyl]hexanamide] | –
14 | 5.70 | 78 | CCCc1c(OCCCCCC(=O)NCCCc2cccnc2)ccc(C(C)=O)c1O [Example 9, 6-(4-Acetyl-3-hydroxy-2-propylphenoxy)-N-[3-(3-pyridinyl)propyl]hexanamide] | –
15 | 6.30 | 35 | CCCc1c(OCCCCCC(=O)NCCc2cccnc2)ccc(C(C)=O)c1O [Example 10, 6-(4-Acetyl-3-hydroxy-2-propylphenoxy)-N-[2-(3-pyridinyl)ethyl]hexanamide] | –
16 | 6.00 | 83 | CCCc1c(OCCCC(=O)NCCCCCCc2cccnc2)ccc(C(C)=O)c1O [Example 11, 4-(4-Acetyl-3-hydroxy-2-propylphenoxy)-N-[6-(3-pyridinyl)hexyl]butanamide] | –
17 | 5.82 | 51 | CCCc1c(OCCCC(=O)NCCCc2cccnc2)ccc(C(C)=O)c1O [Example 12, 4-(4-Acetyl-3-hydroxy-2-propylphenoxy)-N-[3-(3-pyridinyl)propyl]butanamide] | –
18 | 6.40 | 8 | CCCc1c(OCCCC(=O)NCCc2cccnc2)ccc(C(C)=O)c1O [Example 13, 4-(4-Acetyl-3-hydroxy-2-propylphenoxy)-N-[2-(3-pyridinyl)ethyl]butanamide] | –
